Assay results from PubChem BioAssay AID1996.
≈ marks a conversion by molar mass, not a printed value.

Details: buffer; pH 7.4; 200.0 µM

| Compound | solubility kinetic |
| --- | --- |
| Cc1cc(=O)n(Cc2ccc(OC(C)C)cc2)c(=S)[nH]1 | 13.8 µg/mL (≈ 47.5 µM) |
| COc1cccc(/C=N/c2nc3ccccc3[nH]2)c1O | 33.2 µg/mL (≈ 124 µM) |
| O=C(NCCCN1CCOCC1)c1ccc2ccccc2c1 | > 44.8 µg/mL |
| S=C(NCCc1ccc(Cl)cc1)NCc1ccccc1 | 16.7 µg/mL (≈ 54.8 µM) |
| CCC1(c2ccccc2)NC(=O)N(CC(=O)Nc2ccc(N3CCOCC3)cc2)C1=O (stereo unspecified) | > 63.4 µg/mL |
| CCN1CCCC1CNC(=O)C(=O)NC (stereo unspecified) | > 32 µg/mL |
| CC(NS(=O)(=O)c1ccc(Cl)c(Cl)c1)C(=O)Nc1cccnc1 (stereo unspecified) | > 56.1 µg/mL |
| O=C1NC(=Nc2ccc(O)cc2)S/C1=C\C=C\c1ccco1 | 4.7 µg/mL (≈ 15 µM) |
| Cc1c(NC(=O)c2ccc(S(=O)(=O)Nc3ccccc3F)cc2)c(=O)n(-c2ccccc2)n1C | > 72.1 µg/mL |
| CCc1ccccc1NC(=O)C1CCN(c2cnccn2)CC1 | > 46.6 µg/mL |
| O=C(CSc1nccc(=O)[nH]1)NC1CCCCCCC1 | > 44.3 µg/mL |
| CC(=O)N(Cc1nc2sc(C)c(C)c2c(=O)[nH]1)C1CCCC1 | 19.5 µg/mL (≈ 61 µM) |
| Cc1cc(C)c(NC(=O)CSc2cccc[n+]2[O-])c(C)c1 | > 45.4 µg/mL |
| Cc1cccc(OCC(=O)NCc2nc(-c3ccccc3)no2)c1 | 3.1 µg/mL (≈ 9.59 µM) |
| N#Cc1ccccc1CN1C(=O)NC2(CCCCCC2)C1=O | > 44.6 µg/mL |
| Cc1cnc(C(=O)OCC(=O)N2C(C)CCCC2C)cn1 (stereo unspecified) | > 43.7 µg/mL |
| CCOC(=O)c1nc2c(ccc3ccccc32)cc1C | < 0.6 µg/mL |
| CN(C)C(=S)Nc1ccc(S(=O)(=O)N2CCCCC2)cc1 | 47.1 µg/mL (≈ 144 µM) |
| O=S(=O)(c1cccc(F)c1)N1CCN(c2nc(-c3cccnc3)nc3ccccc23)CC1 | 1.2 µg/mL (≈ 2.67 µM) |
| COCCNc1oc(/C=C/c2ccccc2)nc1C#N | > 40.4 µg/mL |
| O=C(CSc1nnc(-c2ccncc2)o1)Nc1cc(Cl)ccc1C(=O)O | > 58.6 µg/mL |
| CCCN(CCC)S(=O)(=O)c1cccc(-c2csc(C)n2)c1 | 8 µg/mL (≈ 23.6 µM) |

| Compound | solubility kinetic |
| --- | --- |
| CCC(C(=O)Nc1ccsc1C(=O)OC)c1ccccc1 (stereo unspecified) | 5.8 µg/mL (≈ 19.1 µM) |
| CCN1CCN(C(=O)/C=C/c2ccc(C(C)C)cc2)CC1 | > 43 µg/mL |
| CC(=O)Nc1ccc(/C=C/c2nc3ccccc3[nH]c2=O)cc1 | 27 µg/mL (≈ 88.4 µM) |
| COc1c(C)cccc1C(=O)NCCCNC(=O)c1ccc(C)nc1 | 46.8 µg/mL (≈ 137 µM) |
| CC(=O)c1ccc(S(=O)(=O)N2CCCCC2C(=O)O)cc1 (stereo unspecified) | 45.9 µg/mL (≈ 147 µM) |
| O=C(CCn1c(=S)oc2ccccc21)NCCC1=CCCCC1 | 0.8 µg/mL (≈ 2.42 µM) |
| CC(=O)N1CCN=C1SCc1cccc(F)c1 | 36.5 µg/mL (≈ 145 µM) |
| Cc1ccc(C(=O)NCC(=O)NCCCc2ccccc2)cc1 | > 46.6 µg/mL |
| Br.Oc1ccc(-c2cn3ccccc3n2)cc1 | 36.5 µg/mL |
| COc1cc(C(CN)CC(=O)O)ccc1O.Cl (stereo unspecified) | > 39.3 µg/mL |
| CCCCN1C(=O)CC(Sc2ncccc2C(=O)O)C1=O (stereo unspecified) | 39.9 µg/mL (≈ 129 µM) |
| Cc1ccc(NC(=O)N2CCCC(c3ccccc3)C2)cc1 (stereo unspecified) | 1.6 µg/mL (≈ 5.43 µM) |
| CC(C)=C(NC(=O)c1ccccc1)C(=O)Nc1ccc(C(=O)O)cc1 | > 50.8 µg/mL |
| CC(C)(C)Nc1nc2cc([N+](=O)[O-])ccc2o1 | 10.9 µg/mL (≈ 46.3 µM) |
| O=C(c1cccs1)N1CCN=C1SCc1cccc(F)c1 | < 0.3 µg/mL |
| COc1ccc2cc(C(=O)NCCCN3CCCC3=O)[nH]c2c1 | > 47.3 µg/mL |
| COc1ccccc1CC(=O)NC1CC1 | 29.6 µg/mL (≈ 144 µM) |
| Cc1ccccc1NC(=O)c1cc[n+]([O-])cc1 | > 34.2 µg/mL |
| O=c1[nH]c(Sc2ccc([N+](=O)[O-])cc2[N+](=O)[O-])nc2ccccc12 | 26.3 µg/mL (≈ 76.4 µM) |
| CCCCNc1c([N+](=O)[O-])ncn1C | > 29.7 µg/mL |
| Cc1ccc(-n2c(N)c(Br)c(=O)[nH]c2=O)cc1C | > 46.5 µg/mL |
| O=C(Nc1ccccc1O)c1csc2c1CCCC2 | 2.2 µg/mL (≈ 8.05 µM) |

| Compound | solubility kinetic |
| --- | --- |
| C=CCNC(=S)N(C1CCCCC1)C1CCCCC1 | 21 µg/mL (≈ 74.9 µM) |
| COc1cc(C(=O)O/N=C2\C=CC(=O)C(C)=C2)cc(OC)c1OC | > 49.7 µg/mL |
| CCC1CCc2sc(C(=O)NCc3ccccn3)cc2C1 (stereo unspecified) | 36.8 µg/mL (≈ 122 µM) |
| N#C/C(=C\c1ccccc1)C(=O)NCc1ccc(F)cc1 | 5.3 µg/mL (≈ 18.9 µM) |
| Cc1ccc(NC(=O)COC(=O)CC2CC3CCC2C3)cc1S(=O)(=O)N1CCOCC1 (stereo unspecified) | 10.2 µg/mL (≈ 22.6 µM) |
| COc1ccccc1NC(=O)C(C)OC(=O)CC1CCCC1 (stereo unspecified) | 29.4 µg/mL (≈ 96.3 µM) |
| CN(CC(=O)NCc1ccco1)S(=O)(=O)c1ccc(F)cc1 | > 49 µg/mL |
| COc1ccc(C(=O)Nc2ccc(C3(C#N)CCCC3)cc2)cc1OC | < 0.4 µg/mL |
| Cn1cc(C(=O)C(=O)NCCc2ccccc2)c2ccccc21 | 0.6 µg/mL (≈ 1.96 µM) |
| COc1cccc2c(Nc3ccccc3C)cc(C)nc12.Cl | 40.1 µg/mL |
| CCN(CC)CC(O)Cn1c(-c2ccccc2Cl)nc2ccccc21 (stereo unspecified) | > 53.7 µg/mL |
| Cc1ccc(CN2C(=O)CSC(C)C2=O)cc1 (stereo unspecified) | > 37.4 µg/mL |
| Cc1ccc(NC(=O)CN2C(=O)NC3(CCCC3)C2=O)c(Cl)c1 | > 50.4 µg/mL |
| CCN(CC)C(=O)c1ccc(-c2cccs2)s1 | 32.6 µg/mL (≈ 123 µM) |
| Cl.Fc1ccc(OCCCCN2CCOCC2)cc1 | > 43.5 µg/mL |
| CC1CCCC(C)N1C(=O)COC(=O)c1cc(F)c(F)cc1Cl (stereo unspecified) | > 51.9 µg/mL |
| COCCNc1nc2c(c(=O)n(Cc3ccccc3F)c(=O)n2C)n1C | 8.5 µg/mL (≈ 23.5 µM) |
| CC(=O)C1=C(O)C(=O)N(c2ccc(O)cc2)C1c1cccc([N+](=O)[O-])c1 (stereo unspecified) | > 53.1 µg/mL |
| O=C(NN=C1CCCC1)c1ccc(Cl)cc1 | > 35.5 µg/mL |
| CCCCN(C(=O)c1c(-c2ccccc2)noc1C)c1c(N)n(CCC)c(=O)[nH]c1=O | > 63.8 µg/mL |
| COc1cc(CC(=O)N2CCN(S(=O)(=O)c3ccc(C)cc3)CC2)cc(OC)c1OC | > 67.3 µg/mL |
| Cc1nc2ccccc2c2c1CC(C)S2 (stereo unspecified) | 24.5 µg/mL (≈ 114 µM) |

| Compound | solubility kinetic |
| --- | --- |
| Cc1ccccc1C(=O)Nc1ccccc1C(=O)N1CCC(C)CC1 | 32.9 µg/mL (≈ 97.8 µM) |
| c1ccc2c(c1)COC(CN1CCCCC1)OC2 | 35.6 µg/mL (≈ 144 µM) |
| CC(Oc1ccccc1)C(=O)NC1CCSc2ccccc21 (stereo unspecified) | 25.9 µg/mL (≈ 82.6 µM) |
| CCN(CC)S(=O)(=O)c1ccc(N2CCOCC2)c(NC(=O)c2ccc(=O)[nH]c2)c1 | > 65.2 µg/mL |
| COc1ccccc1NC(=O)COC(=O)C1CCCC1 | > 41.6 µg/mL |
| Nc1c(C(=O)N2CCCC2)sc2nc(-c3ccccc3)ccc12 | 2.1 µg/mL (≈ 6.49 µM) |
| O=C(C1CC1)N1CCN(c2ccc([N+](=O)[O-])cc2-n2cccc2)CC1 | 6.3 µg/mL (≈ 18.5 µM) |
| Cc1cc(NC(=O)CSCc2ccccc2C)no1 | 18.3 µg/mL (≈ 66.2 µM) |
| CCC(C)NC(=O)c1ccccc1SC (stereo unspecified) | > 33.5 µg/mL |
| CCSCc1nc(N)nc(NCCc2ccccc2)n1 | 34.7 µg/mL (≈ 120 µM) |
| COc1ccc(-c2ccc(CCC(=O)O)n2Cc2ccco2)cc1 | 48.1 µg/mL (≈ 148 µM) |
| Cc1ccc(C(=O)C(C)Sc2nnc(N)s2)cc1 (stereo unspecified) | > 41.9 µg/mL |
| COc1ccc2c(c1)CCc1c-2nc2ccccc2c1N1CCOCC1 | 5.5 µg/mL (≈ 15.9 µM) |
| Cc1cnc(C(=O)Oc2ccc(-c3ccccc3)cc2)cn1 | 2.8 µg/mL (≈ 9.64 µM) |
| Clc1cccc(Cl)c1CO/N=C/c1cccs1 | > 42.9 µg/mL |
| O=[N+]([O-])c1cccc(-c2noc(-c3cccs3)n2)c1 | < 0.2 µg/mL |
| Fc1ccc(OCCOCCOc2cccc3[nH]ccc23)cc1 | 16.3 µg/mL (≈ 51.7 µM) |
| CC12CC3CC(C)(C1)CC(C(=O)NCc1cccnc1)(C3)C2 | > 44.8 µg/mL |
| COc1ccccc1CNC(=O)CCc1ccccc1 | > 40.4 µg/mL |
| COC(=O)CC1C(=O)NCCN1C(=O)c1ccc([N+](=O)[O-])cc1 (stereo unspecified) | > 48.2 µg/mL |
